Measured values from patent publication US20130336988A1, “METHODS FOR TREATING EARLY STAGE OR MILD NEUROLOGICAL DISORDERS” (NEW YORK UNIVERSITY, priority 2010, published 2013).

Columns and labels:
[1] = tested on: E15 DIV3 mouse hippocampal neurons; experiment: proNT-induced growth cone collapse in cultured hippocampal neurons (live imaging and immunofluorescence); type: cell-based; conditions: for growth cone collapse: p75NTR-positive cells, 20 min exposure, 10 ng/ml proNGF, 10 ng/ml proBDNF with K252a, 5 ng/ml NGF
Protocol: To assay which pathways are involved in filopodial collapse, 5-10 ng/ml proNGF, 10 ng/ml proBDNF, 25-50 ng/ml BDNF (Peprotech) or 25-100 ng/ml NGF (Harlan) was added to E15 primary hippocampal neurons for 20 min before fixation. In some cases, cells were pretreated with 100 nM K-252a (Calbiochem) for 20 min, 100 nM Gö6976 (Calbiochem) for 1 hour, 5 μM EHT1864 (Sigma) for 30 min or 100 nM ITX3 (ChemBridge Corporation, cat. no. 6007262) for 45 min. To block SorCS2, cells were incubated with 20 μg/ml anti-SorCS2 or control IgG for 20 min on ice before proNGF addition at 37° C.
DIV3 hippocampal neurons were fixed in 4% paraformaldehyde/20% sucrose for 10 min. The fixative was quenched with 50 mM NH4Cl in PBS for 5 min and cells were permeabilized with 0.1% TritonX-100 in PBS for 2 min. Alternatively, cells were fixed with ice-cold methanol for 5 min. Coverslips were blocked with 10% normal donkey serum, 2% bovine serum albumin and 0.25% fish skin gelatin in Tris-buffered saline for 30 min, incubated with primary antibodies diluted in blocking solution for 30 min, washed three times with Tris-buffered saline/0.25% fish skin gelatin, incubated with secondary antibodies mixed with Hoechst in blocking buffer for additional 30 min, washed and mounted using Mowio1488. Cells were imaged using a LSM510 laser-scanning confocal microscope equipped with a 40× Plan Neofluor NA1.3 DIC oil-immersion objective (Carl Zeiss Microimaging). Images were processed using LSM510 software (Zeiss) and ImageJ (NIH).
Cells were plated on gridded glass bottom dishes (MatTek Corporation) and imaged at DIV3 in phenol red-free Neurobasal medium (Invitrogen) supplemented with 30 mM HEPES-NaOH, pH7.4 using an Olympus IX71 inverted microscope driven by IPLab software (BD Biosciences) and equipped with a 60× PlanApoN objective (NA 1.42), a Hamamatsu EM-CCD camera and a heated stage maintained at 37° C., or driven by softWoRX software (version 3.7.1, DeltaVision), and equipped with a CoolSnap HQ2 camera (Photometrics) and an environmental chamber maintained at 37° C. Images were taken every 15 seconds. After live imaging cells were fixed, counterstained for p75, located by grid number and examined for p75 expression. All movies were exported and processed using IPLab (BD Biosciences), softWoRX (version 3.7.1, DeltaVision) and ImageJ (NIH) software. Filopodia length and speed were both analyzed using ImageJ (NIH) software. For this, two times ten consecutive frames, spaced 5-10 min apart, were analyzed before and again after treatment. In the length analysis, a line was drawn along an individual filopodium and measured at every time point, and the measurements were averaged before and after treatment. For the speed analysis, the filopodial tip was tracked using the ImageJ Manual Tracking plugin. Up to four individual filopodia were analyzed per movie, and a minimum of four movies taken from separate experiments were analyzed per condition.
Primary hippocampal and cortical neurons were isolated from E15 C57BL/6 mouse embryos as previously described (PEREIRA, D. B. et al., Journal of Neuroscience 27:4859-4869 (2007)). Briefly, neurons were dissociated by incubation with 0.05% trypsin at 37° C. for 8 min followed by trituration with fire-polished glass Pasteur pipettes. Cells were plated on poly-D-lysine coated dishes and grown in Neurobasal medium containing B27, 0.5 mM glutamine (all Invitrogen) and 10 μM 5-fluorodeoxyuridine. Hippocampal neurons were transfected at DIV2 using Lipofectamine2000 (Invitrogen). For coverslips in a 24-well plate, 0.5 μg plasmid were mixed with 0.5 μl Lipofectamine2000, and for glass bottom dishes, 1.5 μg plasmid were mixed with 1.5 μl Lipofectamine2000. The complexes were added to the cells for 30-45 min, and then neurons were placed back into preconditioned media until analysis the following day. […]

p75^NTR/SorCS2 and Trio = target: T1, p75^NTR/SorCS2 and Trio (Homo sapiens, UniProt P08138+Q96PQ0); experiment: Co-immunoprecipitation of Trio with p75NTR/SorCS2 after proNT treatment of HT1080 cells; type: cell-based; conditions: HT1080 cells expressing p75NTR and SorCS2; 20 min incubation; IP anti-p75NTR, Western blot
T1 construct: HA; expressed in transfected cells; host or cells: HT-1080 cells
T1 sequence (P08138 29-427): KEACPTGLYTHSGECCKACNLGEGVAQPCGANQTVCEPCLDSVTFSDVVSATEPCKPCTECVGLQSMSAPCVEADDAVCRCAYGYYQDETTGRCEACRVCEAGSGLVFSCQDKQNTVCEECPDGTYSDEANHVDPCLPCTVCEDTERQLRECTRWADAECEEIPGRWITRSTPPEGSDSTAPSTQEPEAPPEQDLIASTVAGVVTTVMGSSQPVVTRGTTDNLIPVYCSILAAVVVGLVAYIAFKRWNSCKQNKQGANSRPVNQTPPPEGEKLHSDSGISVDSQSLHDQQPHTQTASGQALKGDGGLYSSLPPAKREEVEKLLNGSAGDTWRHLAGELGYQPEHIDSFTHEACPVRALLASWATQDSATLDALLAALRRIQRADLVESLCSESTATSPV
T1 sequence (Q96PQ0 70-1159 limits assumed): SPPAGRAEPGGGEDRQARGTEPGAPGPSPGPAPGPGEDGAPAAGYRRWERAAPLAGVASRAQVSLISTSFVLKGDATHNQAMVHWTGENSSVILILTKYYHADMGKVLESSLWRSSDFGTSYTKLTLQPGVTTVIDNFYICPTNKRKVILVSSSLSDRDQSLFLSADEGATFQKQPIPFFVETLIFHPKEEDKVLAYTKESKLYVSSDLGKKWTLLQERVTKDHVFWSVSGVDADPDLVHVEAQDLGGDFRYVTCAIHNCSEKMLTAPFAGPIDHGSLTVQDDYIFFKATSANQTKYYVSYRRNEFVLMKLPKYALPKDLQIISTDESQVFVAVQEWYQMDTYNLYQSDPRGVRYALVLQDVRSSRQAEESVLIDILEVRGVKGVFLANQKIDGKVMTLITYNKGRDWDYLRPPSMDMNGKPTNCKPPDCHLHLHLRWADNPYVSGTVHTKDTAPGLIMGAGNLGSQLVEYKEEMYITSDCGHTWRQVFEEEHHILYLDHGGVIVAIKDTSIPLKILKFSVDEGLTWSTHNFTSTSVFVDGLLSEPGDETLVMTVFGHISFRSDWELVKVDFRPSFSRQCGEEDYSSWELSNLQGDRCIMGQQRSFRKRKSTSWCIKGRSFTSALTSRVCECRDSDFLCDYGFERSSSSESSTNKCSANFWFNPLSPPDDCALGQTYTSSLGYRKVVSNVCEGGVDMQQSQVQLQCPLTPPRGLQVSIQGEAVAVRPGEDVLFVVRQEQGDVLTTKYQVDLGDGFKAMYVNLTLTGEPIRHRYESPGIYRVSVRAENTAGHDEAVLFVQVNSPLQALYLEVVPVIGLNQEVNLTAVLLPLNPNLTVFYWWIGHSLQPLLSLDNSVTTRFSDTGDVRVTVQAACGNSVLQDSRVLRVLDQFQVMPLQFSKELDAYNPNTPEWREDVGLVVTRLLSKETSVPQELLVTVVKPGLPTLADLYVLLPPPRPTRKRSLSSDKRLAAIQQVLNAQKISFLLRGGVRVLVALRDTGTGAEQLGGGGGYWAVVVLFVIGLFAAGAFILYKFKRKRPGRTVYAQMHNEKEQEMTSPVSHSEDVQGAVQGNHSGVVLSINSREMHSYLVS
Protocol: HT-1080 cells were transfected with HA-p75^NTR and myc-SorCS2. 24-48 hours later, cells were treated with 25 ng/ml proNGF for 20 min where indicated. Cells were lysed with lysis buffer (50 mM Tris-HCl pH 8.0, 140 mM NaCl, 2 mM EDTA, 1% NP40, 10% glycerol) supplemented with protease inhibitors and complexes were immunoprecipitated using anti-HA agarose. To map the Trio domain required for the interaction with p75^NTR, 293T cells were transfected with HA-p75^NTR and constructs of the individual Trio domains. After 24 hours, cells were lysed as described above, and complexes were immunoprecipitated using anti-HA agarose or anti-Myc agarose as indicated.

“proNGF: proneurotrophin precursor of nerve growth factor, produced in Sf9 cells and purified” was tested, and the “growth cone collapse in neurons from p75NTR-/- mice” value ([1]; live imaging of LifeAct-RFP transfected neurons from p75 null mice (not shown)) was “growth cone collapse was never observed”, the “localisation of endogenous Trio” value ([1]; p75NTR-positive E15 DIV3 hippocampal neurons, immunostaining) was “redistribution of Trio along the neuritis” and the growth cone collapse [1] was “comparable in inducing growth cone collapse”. The “interaction between p75NTR/SorCS2 and Trio” value (p75^NTR/SorCS2 and Trio) was “markedly reduced the interaction”.

B1: proBDNF: murine proBDNF collected from supernatants of transfected 293 cells (protein)
chain: APMKEVNVHGQGNLAYPGVRTHGTLESVNGPRAGSRGLTTTSLADTFEHVIEELLDEDQKVRPNEENHKDADLYTSRVMLSSQVPLEPPLLFLLEEYKNYLDAANMSMRVRRHSDPARRGELSVCDSISEWVTAADKKTAVDMSGGTVTVLEKVPVSKGQLKQYFYETKCNPMGYTKEGCRGIDKRHWNSQCRTTQSYVRALTMDSKKRIGWRFIRIDTSCVCTLTIKRGR
With B1 the growth cone collapse [1] was “comparable in inducing growth cone collapse” and the “interaction between p75NTR/SorCS2 and Trio” value (p75^NTR/SorCS2 and Trio) was “markedly reduced the interaction”.
